Where two headings read alike, the source gives them in different places.
Assays:
[1] = target: T1, 5HT2C receptors (Homo sapiens, UniProt P28335); assay: Human 5-HT2C functional assay in 1321N1 cells (intracellular calcium, FLIPR); type: cell-based; design: expressed in transfected cells; host or cells: 1321N1 cells; conditions: 5-HT2c agonist activity, maximum calcium response
T1 sequence (P28335 33-458): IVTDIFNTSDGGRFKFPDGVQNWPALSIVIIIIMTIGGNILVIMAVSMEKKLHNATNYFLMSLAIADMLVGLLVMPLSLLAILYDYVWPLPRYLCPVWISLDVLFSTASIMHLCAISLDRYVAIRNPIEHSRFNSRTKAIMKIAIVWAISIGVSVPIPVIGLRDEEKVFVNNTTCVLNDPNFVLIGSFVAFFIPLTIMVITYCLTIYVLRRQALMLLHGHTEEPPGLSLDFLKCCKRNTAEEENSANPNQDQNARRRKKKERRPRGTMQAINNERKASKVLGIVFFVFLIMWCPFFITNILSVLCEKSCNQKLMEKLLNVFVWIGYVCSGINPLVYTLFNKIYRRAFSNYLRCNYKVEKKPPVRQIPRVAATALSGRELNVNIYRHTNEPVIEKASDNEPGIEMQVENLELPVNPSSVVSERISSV
Protocol: (ii) Human 5-HT2C Functional Assay in 1321N1 Cells
Functional activity was determined by testing the effect of the compounds on intracellular calcium levels in 1321N1 cells stably transfected with the human 5-HT2C receptor. Cells were seeded into 96-well plates at 50,000 cells/well and grown overnight in tissue culture medium (DMEM with Glutamax I (Invitrogen), containing 10% dFCS, 50 μg/mL Gentamicin, 400 μg/mL Geneticin) at 37° C. and 7% CO2. Growth medium was replaced by medium without dFCS for overnight incubation. Cells were loaded with a fluorescent calcium-sensitive dye in the presence of 1% probenicid according to the manufacturer's protocol (Fluo4 AM, Molecular Devices). Serial compound dilutions (final concentrations 10^−10 to 10^−5 M) were added to the cells either alone or in the presence of serotonin (10^−9 M) and the maximum calcium response was determined using a FLIPR instrument (Molecular Devices). Concentration-response curves were fitted using a four-parameter logistic equation (GraphPad Prism). The concentration at which the compound exerts half its maximal effect is named the ‘effective concentration 50’ or ‘EC50’ and is listed in Table 2.

[2] = target: T2, h-5-HT6 receptor (Homo sapiens, UniProt P50406); assay: Human 5-HT6 receptor radioligand binding assay (HEK293 membranes, [3H]-LSD)
T2 construct: expressed in transfected cells; host or cells: HEK293 cells (membranes)
Protocol: (v) Human 5-HT6 Receptor Radioligand Binding Assay
Preparation of Membranes by Ultrasonic Treatment and Differential Centrifugation
Cells from stable clonal cell lines expressing the corresponding receptor (5-HT6) were washed with PBS (without Ca^++, Mg^++) and harvested in PBS with 0.02% EDTA. The cells were collected by centrifugation at 500 g for 10 minutes at 4° C., washed with PBS and centrifuged (500 g, 10 minutes at 4° C.). The pellets were stored at −80° C. until use. For membrane preparation, the thawed cell pellet was resuspended in ice-cold sucrose buffer (0.25 M sucrose, 10 mM HEPES (pH 7.4), 1 mM phenylmethylsulfonyl fluoride (PMSF) in DMSO, 5 μg/ml Pepstatin-A, 3 mM EDTA, 0.025% Bacitracin) and homogenized with a Branson Sonifier W-250 (Settings: Timer 4; Output Control 3; Duty Cycle constant; 2 to 3 cycles). Cell disruption was checked with the aid of a microscope. Remaining unbroken cells were pelleted at 1,000 g for 10 minutes at 4° C. The sucrose buffer supernatant was then centrifuged at 60,000 g for 1 hour at 4° C. (Beckman Ultracentrifuge XL 80). The pellet was resuspended in 30 mL of ice-cold Tris buffer (20 mM TRIS (pH 7.4), 5 μg/mL Pepstatin A, 0.1 mM PMSF, 3 mM EDTA) by pipetting through a 10 mL serological pipette and centrifuged for 1 hour at 4° C. at 60,000 g. A final resuspension was performed in a small volume of ice-cold Tris buffer (see above) by pressing through a serological pipette followed by ultrasonic treatment with a Branson Sonifier W-250 (Settings: Timer 1; Output Control 3; Duty Cycle constant; 1 cycle). Protein concentration was determined (BCA-Kit; Pierce) and aliquots stored at −80° C. or in liquid nitrogen for long-term storage.
Receptor Binding Experiments
All receptor binding experiments were carried out in the corresponding assay buffer in a total volume of 200 μL in the presence of various concentrations of test compound (10^−5 M to 10^−9 M, tenfold serial dilution, duplicate determinations). The assays were terminated by filtration on polyethylenimine (PEI 0.1% or 0.3%) presoaked Packard Unifilter Plates (GF/C or GF/B) with a Tomtec MachIII U 96 well-plate harvester. After the plates had been dried for 2 hours at 55° C. in a drying chamber scintillation cocktail (BetaPlate Scint; PerkinElmer) was added. Radioactivity was measured in a Microbeta Trilux two hours after the addition of the scintillation mixture.
5-HT6 Receptor Binding Assay
HEK293 cells stably expressing the h-5-HT6 receptor (NCBI Reference Sequence XM 001435) were cultured in RPMI1640 medium supplemented with 25 mM HEPES, 10% fetal calf serum and 1-2 mM glutamine. The membrane preparation was performed as described above. […] On the day of the assay, the membranes were thawed, diluted in assay buffer (50 mM Tris-HCl, 5 mM CaCl2, 0.1% ascorbic acid, 10 μM pargyline, pH 7.4) to a concentration of 8 μg protein/assay and homogenized by gentle vortexing. […] Non-specific binding was defined with 1 μM methiothepin. The binding reaction was carried out for 3.5 hours at room temperature. During the incubation, the plates were shaken on a plate shaker at 100 rpm and terminated by filtration on Packard Unifilter GF/C (0.1% PEI) plates, followed by 2 wash cycles with ice-cold 50 mM Tris-HCl, 5 mM CaCl2.
Data derived from liquid scintillation counting were analyzed by iterative non-linear regression analysis with the use of the Statistical Analysis System (SAS): a program similar to “LIGAND” as described by Munson and Rodbard (Anal. Biochem. 1980, 107, 220-239). Fitting was performed according to formulae described by Feldman (Anal. Biochem. 1972, 48, 317-338). IC50 and Ki values were expressed as geometrical mean.

[3] = target: T3, human serotonin 5-HT2c receptor (Homo sapiens, UniProt P28335); assay: Human 5-HT2C receptor radioligand binding assay (agonist site, [125I]DOI); conditions: 5-HT2c agonist site; transfected CHO cell membranes; 0.2 nM [125I](±)DOI
T3 construct: expressed in transfected cells; host or cells: CHO cells (membrane homogenates)
T3 sequence (P28335 33-458): T1 sequence (P28335 33-458)
Protocol: (i) Human 5-HT2C Receptor Radioligand Binding Assay
Affinity of compounds for the agonist site of the […], receptor in transfected CHO cells was determined in a radioligand binding assay essentially as described by Bryant, H. U., et al., Life Sciences (1996) 59(15), 1259-1268.

[4] = target: T1, 5HT2C receptors; assay: Human 5-HT2C functional high throughput screening assay in CHO-K1 cells (calcium flux); type: cell-based; design: expressed in transfected cells; host or cells: CHO-K1 cells
Summary of the method: (§1)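 Agonism was measured as FLIPR fluorescence increase (480/530 nm, 25° C) with Ca4 dye and 2.5 mM probenecid, in serum-starved CHO-K1 lines overexpressing human 5-HT2C or 5-HT2B. Six-point 1:10 dilutions from 10 μM (0.2% DMSO final) were fitted by 4-parameter logistics. Responses were normalised to serotonin to give EC50 and % Emax.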

[5] = target: T4, 5HT2B receptors (Homo sapiens, UniProt P41595); assay: Human 5-HT2B functional high throughput screening assay in CHO-K1 cells (calcium flux); type: cell-based
T4 construct: expressed in transfected cells; host or cells: CHO-K1 cells
Summary of the method: as §1

[6] = HEK293 membranes expressing h-5-HT6 receptor, 1 nM [3H]-LSD, geometrical mean, read-out: Ki (5-HT6 Agonist Site Radioligand Binding)

T2 sequence (P50406 whole entry): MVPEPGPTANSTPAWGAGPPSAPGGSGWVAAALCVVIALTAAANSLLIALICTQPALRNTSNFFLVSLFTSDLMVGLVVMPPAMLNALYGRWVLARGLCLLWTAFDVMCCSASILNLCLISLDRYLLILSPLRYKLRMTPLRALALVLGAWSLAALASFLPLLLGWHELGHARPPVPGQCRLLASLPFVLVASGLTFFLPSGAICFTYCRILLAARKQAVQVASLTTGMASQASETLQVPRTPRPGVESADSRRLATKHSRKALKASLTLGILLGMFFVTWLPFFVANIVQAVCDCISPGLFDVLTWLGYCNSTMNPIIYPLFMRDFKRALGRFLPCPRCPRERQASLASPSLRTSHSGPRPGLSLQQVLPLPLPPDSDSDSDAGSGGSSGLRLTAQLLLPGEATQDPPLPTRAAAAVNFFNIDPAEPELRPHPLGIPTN
T4 sequence (P41595 whole entry): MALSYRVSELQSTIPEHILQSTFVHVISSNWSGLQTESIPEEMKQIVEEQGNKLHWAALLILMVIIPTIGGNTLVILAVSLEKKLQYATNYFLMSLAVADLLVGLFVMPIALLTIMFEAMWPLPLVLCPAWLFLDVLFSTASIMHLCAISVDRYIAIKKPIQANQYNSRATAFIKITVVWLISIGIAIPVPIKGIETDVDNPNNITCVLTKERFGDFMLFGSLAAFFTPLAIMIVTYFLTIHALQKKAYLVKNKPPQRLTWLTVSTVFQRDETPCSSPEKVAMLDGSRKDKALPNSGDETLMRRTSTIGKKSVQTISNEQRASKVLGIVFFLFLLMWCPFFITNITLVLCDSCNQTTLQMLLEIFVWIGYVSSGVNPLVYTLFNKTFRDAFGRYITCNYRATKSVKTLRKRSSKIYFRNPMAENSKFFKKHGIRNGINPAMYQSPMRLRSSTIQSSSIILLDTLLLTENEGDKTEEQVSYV

Row | Ki [2, 6] [nM] | Compound | EC50 [1] [nM] | further results
1 | 17.1 | O=S(=O)(c1cccc(Cl)c1Cl)N1Cc2ccccc2[C@@H]2CN(Cc3ccccc3)C[C@H]2C1 (relative stereo) [Example 9, Trans-2-benzyl-5-(2,3-dichlorophenylsulfonyl)-1,2,3,3a,4,5,6,10b-octahydrobenzo[c]pyrrolo[3,4-e]azepine] | > 10000 | –
2 | 174 | O=S(=O)(c1cc(Cl)ccc1Cl)N1Cc2ccccc2[C@@H]2CN(Cc3ccccc3)C[C@H]2C1 (relative stereo) [Example 10, Trans-2-benzyl-5-(2,5-dichlorophenylsulfonyl)-1,2,3,3a,4,5,6,10b-octahydrobenzo[c]pyrrolo[3,4-e]azepine] | – | –
3 | 40.3 | O=S(=O)(c1ccccc1Br)N1Cc2ccccc2[C@@H]2CN(Cc3ccccc3)C[C@H]2C1 (relative stereo) [Example 11, Trans-2-benzyl-5-(2-bromophenylsulfonyl)-1,2,3,3a,4,5,6,10b-octahydrobenzo[c]pyrrolo[3,4-e]azepine] | – | –
4 | 37.5 | O=S(=O)(c1cccc2ccccc12)N1Cc2ccccc2[C@@H]2CN(Cc3ccccc3)C[C@H]2C1 (relative stereo) [Example 13, Trans-2-benzyl-5-(naphthalen-1-ylsulfonyl)-1,2,3,3a,4,5,6,10b-octahydrobenzo[c]pyrrolo[3,4-e]azepine] | – | –
5 | 490 | COc1ccc(OC)c(S(=O)(=O)N2Cc3ccccc3[C@@H]3CN(Cc4ccccc4)C[C@H]3C2)c1 (relative stereo) [Example 15, Trans-2-benzyl-5-(2,5-dimethoxyphenylsulfonyl)-1,2,3,3a,4,5,6,10b-octahydrobenzo[c]pyrrolo[3,4-e]azepine] | – | –
6 | 55.1 | Cc1ccc(C)c(S(=O)(=O)N2Cc3ccccc3[C@@H]3CN(Cc4ccccc4)C[C@H]3C2)c1 (relative stereo) [Example 17, Trans-2-benzyl-5-(2,5-dimethylphenylsulfonyl)-1,2,3,3a,4,5,6,10b-octahydrobenzo[c]pyrrolo[3,4-e]azepine] | – | –
7 | 23.1 | COc1cccc(S(=O)(=O)N2Cc3ccccc3[C@@H]3CN(Cc4ccccc4)C[C@H]3C2)c1 (relative stereo) [Example 18, Trans-2-benzyl-5-(3-methoxyphenylsulfonyl)-1,2,3,3a,4,5,6,10b-octahydrobenzo[c]pyrrolo[3,4-e]azepine] | – | –
8 | 36.1 | N#Cc1ccccc1S(=O)(=O)N1Cc2ccccc2[C@@H]2CN(Cc3ccccc3)C[C@H]2C1 (relative stereo) [Example 21, Trans-2-benzyl-5-(2-cyanophenylsulfonyl)-1,2,3,3a,4,5,6,10b-octahydrobenzo[c]pyrrolo[3,4-e]azepine] | – | –
9 | – | O=S(=O)(c1cccc(F)c1)N1Cc2ccccc2[C@@H]2CNC[C@H]2C1 (relative stereo) [Example 54, Trans-5-(3-fluorophenylsulfonyl)-1,2,3,3a,4,5,6,10b-octahyrobenzo[c]pyrrolo[3,4-e]azepine] | 13.2 | Ki [2]: 121 nM; Ki [3]: 9.1 nM
10 | – | CN1C[C@H]2CN(S(=O)(=O)c3ccccc3)Cc3ccccc3[C@@H]2C1 (relative stereo) [Example 71, Trans-2-methyl-5-(phenylsulfonyl)-1,2,3,3a,4,5,6,10b-octahydrobenzo[e]pyrrolo[3,4-e]azepine] | 14.2 | Ki [2]: 4.42 nM; Ki [3]: 15 nM
11 | – | CN1C[C@H]2CN(S(=O)(=O)c3ccccc3)Cc3ccccc3[C@H]2C1 (relative stereo) [Example 72, Cis-2-methyl-5-(phenylsulfonyl)-1,2,3,3a,4,5,6,10b-octahydrobenzo[c]pyrrolo[3,4-e]azepine] | 51.9 | Ki [2]: 71.7 nM; Ki [3]: 65 nM
12 | 3180 | CN1C[C@H]2CNC(=O)c3cc(OCc4cccc(F)c4)ccc3[C@@H]2C1 (relative stereo) [Example 217, Trans-8-(3-fluorobenzyloxy)-2-methyl-1,2,3,3a,4,5-hexahydrobenzo[c]pyrrolo[3,4-e]azepin-6(10bH)-one] | – | EC50 ([4]; 5-HT2C agonist activity, CHO-K1 cells, calcium flux, read-out: EC50): 2 nM; Emax ([4]; CHO-K1, 5-HT2C, maximum functional response as percentage relative to the effect of serotonin, read-out: Emax): 120%; EC50 ([5]; 5-HT2B agonist activity, CHO-K1 cells, calcium flux, read-out: EC50): > 10000 nM; Emax ([5]; 5-HT2B, maximum functional response as percentage relative to the effect of serotonin): inactive

Row | Compound | Ki [2, 6] [nM] | EC50 [1] [nM] | further results
13 | Trans-2-benzyl-5-(2-dichlorophenylsulfonyl)-1,2,3,3a,4,5,6,10b-octahydrobenzo[c]pyrrolo[3,4-e]azepine [Example 19] | 14.1 | – | –

— patent publication US8846951B2 (AbbVie Inc., priority 2009, dated 2014)
